Data as given in patent US20220372040A1, “METTL3 MODULATORS” (Accent Therapeutics, Inc., priority 2020, published 2022).

What was measured:
Type in all cases: biochemical
[1] = target: T1, METTL16 (Homo sapiens, UniProt Q86W50); assay: METTL16 assay (3H-SAM flashplate scintillation); conditions: METTL16 100 nM, RNA 50 nM, 3H-SAM 200 nM, SAM 800 nM, 20 min
T1 sequence (Q86W50 1-562): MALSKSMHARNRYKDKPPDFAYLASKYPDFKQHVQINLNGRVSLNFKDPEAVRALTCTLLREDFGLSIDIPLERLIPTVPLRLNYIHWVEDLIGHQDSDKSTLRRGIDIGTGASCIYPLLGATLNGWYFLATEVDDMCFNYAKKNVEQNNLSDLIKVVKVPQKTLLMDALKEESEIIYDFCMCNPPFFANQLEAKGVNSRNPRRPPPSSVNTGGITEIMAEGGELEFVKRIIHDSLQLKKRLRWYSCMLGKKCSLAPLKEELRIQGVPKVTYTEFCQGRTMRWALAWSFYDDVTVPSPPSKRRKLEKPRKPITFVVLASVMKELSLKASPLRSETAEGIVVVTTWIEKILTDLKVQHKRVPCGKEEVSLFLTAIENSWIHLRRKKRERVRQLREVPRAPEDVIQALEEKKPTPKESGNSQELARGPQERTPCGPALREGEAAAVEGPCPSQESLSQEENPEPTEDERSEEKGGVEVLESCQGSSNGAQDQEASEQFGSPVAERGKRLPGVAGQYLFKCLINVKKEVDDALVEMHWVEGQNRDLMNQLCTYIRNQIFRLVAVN
Experimental: (§1) Assays were performed in a 25 μl-volume in 384-well V-bottom polypropylene microplates (Greiner Bio-One, cat. No. 781280) at ambient temperature. Optimized 1× assay buffer was 20 mM HEPES pH 7.5, 50 mM KCl, 1 mM DTT, 0.01% Tween, 0.01% BSG, 0.004 U/μl RNAseOUT (cat. No. 10777019, ThermoFisher Scientific, Waltham, Mass.). For compound screening METTL16 (final concentration, f.c.=100 nM) was added using a Multidrop Combi (ThermoFisher Scientific, Waltham, Mass.) and preincubated for 5 min. Reactions were started by adding 3′ biotinylated RNA ([…]-biotin) (f.c.=50 nM), 3H-SAM (f.c.=200 nM) and non-radiolabeled SAM (f.c.=800 nM) substrates. Reactions proceeded for 20 minutes and were quenched with excess non-radioactive SAM (f.c.=100 μM). The reactions were then transferred to streptavidin-coated flashplates and incubated for 2 hours at 25° C. Following two washing cycles with 0.1% Tween-20, the plates were sealed and read on a TopCount (PerkinElmer, Waltham, Mass.) plate-based scintillation counter. For determination of kinetic parameters, reaction times were optimized so that measurements were taken during the initial velocity phase of the reaction.

[2] = target: METTL1/WDR4 (Homo sapiens, UniProt Q9UBP6); assay: METTL1 assay (3H-SAM flashplate scintillation); conditions: METTL1/WDR4 6.25 nM, RNA 25 nM, 3H-SAM 60 nM, 20 min; read-out: METTL1 IC50
Experimental: as §1, with “KCl, 250 μM MgCl2,” for “KCl,”, “METTL1/WDR4” for “METTL16”, “f.c.=6.25” for “f.c.=100”, “(f.c.=25” for “(f.c.=50 nM), 3H-SAM (f.c.=200”, “3H-SAM (f.c.=60” for “non-radiolabeled SAM (f.c.=800”, “(f.c.=15” for “(f.c.=100”

[3] = target: PRMT5-MEP50 (Homo sapiens, UniProt O14744); assay: PRMT5 assay (3H-SAM flashplate scintillation); conditions: PRMT5-MEP50 2.5 nM, histone H4 peptide 100 nM, 3H-SAM 250 nM, 60 min
In short: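 Radiometric methyltransferase read-out: after 60 min reaction, excess unlabelled SAM (15 μM) stops turnover and biotinylated H4 peptide (100 nM) carrying 3H-methyl from 250 nM 3H-SAM is captured on streptavidin flashplates (2 h, 25° C) for scintillation counting. Enzyme, 2.5 nM PRMT5-MEP50, was preincubated 5 min with compound in pH 8.0 Tris buffer with DTT and Tween.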

[4] = target: METTL3/METTL14 (Homo sapiens, UniProt Q86U44); assay: METTL3-14 standard enzyme assay (3H-SAM flashplate scintillation); conditions: METTL3/METTL14 2.5 nM, RNA 100 nM, 3H-SAM 100 nM, 30 min
In short: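 Radiometric methylation readout: biotinylated RNA substrate UCUGGACUAAA and 3H-SAM, each 100 nM final, reacted 30 min at ambient temperature with 2.5 nM enzyme complex after 5 min compound preincubation (HEPES pH 7.5 buffer, KCl, MgCl2, DTT). Excess unlabelled SAM (15 μM) stopped reactions before streptavidin flashplate capture.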

Chain of PRMT5-MEP50 (O14744 whole entry): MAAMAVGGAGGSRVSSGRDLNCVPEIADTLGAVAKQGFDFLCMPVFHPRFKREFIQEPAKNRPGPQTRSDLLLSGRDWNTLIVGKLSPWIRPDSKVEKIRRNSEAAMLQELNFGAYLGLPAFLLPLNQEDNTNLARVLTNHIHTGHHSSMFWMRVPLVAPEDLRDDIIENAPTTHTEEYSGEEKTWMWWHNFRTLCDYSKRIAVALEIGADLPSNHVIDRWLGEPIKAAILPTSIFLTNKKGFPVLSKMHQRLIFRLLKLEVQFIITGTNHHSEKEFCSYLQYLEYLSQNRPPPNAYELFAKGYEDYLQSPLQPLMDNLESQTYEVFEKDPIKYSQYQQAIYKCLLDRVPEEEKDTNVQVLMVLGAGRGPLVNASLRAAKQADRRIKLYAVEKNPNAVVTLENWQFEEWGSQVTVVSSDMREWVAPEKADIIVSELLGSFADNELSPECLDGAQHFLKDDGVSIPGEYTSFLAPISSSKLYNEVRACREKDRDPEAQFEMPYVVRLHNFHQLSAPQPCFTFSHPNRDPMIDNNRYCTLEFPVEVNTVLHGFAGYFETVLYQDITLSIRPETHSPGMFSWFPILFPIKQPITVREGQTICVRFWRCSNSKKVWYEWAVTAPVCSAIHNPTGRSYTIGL
Chain of PRMT5-MEP50 (Q9BQA1 whole entry partner): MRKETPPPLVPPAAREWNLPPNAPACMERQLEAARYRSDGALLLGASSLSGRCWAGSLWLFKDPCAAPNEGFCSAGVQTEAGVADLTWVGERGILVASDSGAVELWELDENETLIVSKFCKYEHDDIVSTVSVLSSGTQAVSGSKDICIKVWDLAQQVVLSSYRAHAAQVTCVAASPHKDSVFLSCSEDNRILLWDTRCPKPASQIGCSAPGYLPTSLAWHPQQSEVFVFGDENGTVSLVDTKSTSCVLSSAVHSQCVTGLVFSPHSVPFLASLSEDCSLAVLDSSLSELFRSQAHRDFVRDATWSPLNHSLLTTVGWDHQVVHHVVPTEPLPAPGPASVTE
Chain of METTL1/WDR4 (Q9UBP6 whole entry, species assumed): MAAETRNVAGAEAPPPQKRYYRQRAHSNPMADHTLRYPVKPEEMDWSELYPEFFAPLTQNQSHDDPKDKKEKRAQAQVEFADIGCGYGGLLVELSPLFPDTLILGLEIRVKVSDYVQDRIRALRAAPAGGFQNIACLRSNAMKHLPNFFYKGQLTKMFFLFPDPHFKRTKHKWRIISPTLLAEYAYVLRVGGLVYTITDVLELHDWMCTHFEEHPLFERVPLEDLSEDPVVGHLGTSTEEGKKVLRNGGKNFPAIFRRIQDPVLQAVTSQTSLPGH
Chain of METTL1/WDR4 (P57081 whole entry partner, species assumed): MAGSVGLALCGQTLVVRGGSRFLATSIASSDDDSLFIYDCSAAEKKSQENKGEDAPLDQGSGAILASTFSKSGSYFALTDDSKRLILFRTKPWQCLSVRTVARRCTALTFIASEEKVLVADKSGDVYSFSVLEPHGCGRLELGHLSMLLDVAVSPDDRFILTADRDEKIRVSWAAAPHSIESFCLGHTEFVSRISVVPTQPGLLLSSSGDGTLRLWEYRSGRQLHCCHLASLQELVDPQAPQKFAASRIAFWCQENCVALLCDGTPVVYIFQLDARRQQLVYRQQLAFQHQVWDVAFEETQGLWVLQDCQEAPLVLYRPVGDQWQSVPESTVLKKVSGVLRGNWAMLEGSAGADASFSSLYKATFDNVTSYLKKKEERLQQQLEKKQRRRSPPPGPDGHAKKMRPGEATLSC
Chain of METTL3/METTL14 (Q86U44 whole entry, species assumed): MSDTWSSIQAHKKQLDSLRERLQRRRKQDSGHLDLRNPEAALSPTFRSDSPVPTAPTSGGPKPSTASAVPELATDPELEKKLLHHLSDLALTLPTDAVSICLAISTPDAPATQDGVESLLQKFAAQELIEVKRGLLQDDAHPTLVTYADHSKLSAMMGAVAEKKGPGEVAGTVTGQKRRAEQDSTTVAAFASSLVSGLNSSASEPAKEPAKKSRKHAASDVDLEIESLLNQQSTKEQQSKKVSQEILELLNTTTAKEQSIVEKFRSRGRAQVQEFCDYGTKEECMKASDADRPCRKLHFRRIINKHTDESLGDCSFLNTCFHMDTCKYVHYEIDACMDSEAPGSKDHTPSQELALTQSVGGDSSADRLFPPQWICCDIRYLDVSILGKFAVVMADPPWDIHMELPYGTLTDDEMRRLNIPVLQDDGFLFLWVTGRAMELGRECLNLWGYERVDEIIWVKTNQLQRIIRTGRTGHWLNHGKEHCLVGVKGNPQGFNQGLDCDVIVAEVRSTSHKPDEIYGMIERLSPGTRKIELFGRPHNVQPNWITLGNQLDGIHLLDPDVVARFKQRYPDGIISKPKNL
Chain of METTL3/METTL14 (Q9HCE5 whole entry partner, species assumed): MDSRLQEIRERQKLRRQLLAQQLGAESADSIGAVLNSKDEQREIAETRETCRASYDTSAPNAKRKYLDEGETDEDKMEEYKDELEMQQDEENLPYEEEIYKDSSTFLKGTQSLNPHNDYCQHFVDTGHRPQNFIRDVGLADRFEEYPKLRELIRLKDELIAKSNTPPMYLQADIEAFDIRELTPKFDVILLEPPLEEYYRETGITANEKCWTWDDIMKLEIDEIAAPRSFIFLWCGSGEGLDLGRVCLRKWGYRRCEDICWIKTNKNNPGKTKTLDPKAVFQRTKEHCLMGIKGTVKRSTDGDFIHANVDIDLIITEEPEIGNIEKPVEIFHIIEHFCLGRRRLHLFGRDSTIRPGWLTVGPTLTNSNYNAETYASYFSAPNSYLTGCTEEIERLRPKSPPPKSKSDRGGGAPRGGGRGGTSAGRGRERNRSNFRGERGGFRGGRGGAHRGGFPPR

SMILES | IC50 [1] [nM] | IC50 [2] [nM] | IC50 [3] [nM] | IC50 [4] [nM]
CNc1ccc2ccc(CN(C)c3cccc(-n4cc(Br)c5c(N)ncnc54)c3)cc2n1 [Compound I-69] | > 1000 | > 1000 | > 1000 | > 1000
CCc1ncc(-n2cc(Cl)c3c(N)ncnc32)cc1COc1ccc2ccc(NC)nc2c1 [Compound I-68] | > 1000 | > 1000 | > 1000 | 10 to 100
Cc1cc(N)c2ccc(OCc3cccc(-n4ccc5c(N)ncnc54)c3)cc2n1 [Compound I-66] | > 1000 | > 1000 | > 1000 | 100 to 1000
CNc1ccc2ccc(OCc3cc(-n4cc(Cl)c5c(N)ncnc54)ncn3)cc2n1 [Compound I-64] | > 1000 | > 1000 | > 1000 | > 1000
Nc1ncnc2c1ccn2-c1cncc(COc2ccc3ccc(N4CCCC4)nc3c2)c1 [Compound I-26] | > 1000 | – | > 1000 | 10 to 100
CNc1ccc2ccc(OCc3cc(-n4cc(Cl)c5c(N)ncnc54)cnc3N)cc2n1 [Compound I-28] | > 1000 | > 1000 | > 1000 | 10 to 100
CNc1ccc2ccc(OCc3cc(F)cc(-n4cc(Cl)c5c(N)ncnc54)c3)cc2n1 [Compound I-76] | > 1000 | > 1000 | > 1000 | 10 to 100
C=CC(=O)N(CCC(=O)O)c1nc(N)c2ccn(-c3cncc(COc4ccc5ccc(NC)nc5c4)c3)c2n1 [Compound I-41] | > 1000 | – | > 1000 | > 1000
CNc1ccc2ccc(OCc3ccnc(-n4cc(Cl)c5c(N)ncnc54)c3)cc2n1 [Compound I-85] | > 1000 | > 1000 | > 1000 | 100 to 1000
Cc1cc(N)c2ccc(OCc3cccc(-n4cc(Cl)c5c(N)ncnc54)c3)cc2n1 [Compound I-65] | > 1000 | > 1000 | > 1000 | 10 to 100
CNc1ccc2ccc(OCc3cccc(-n4cc(Cl)c5c(N)ncnc54)n3)cc2n1 [Compound I-84] | > 1000 | > 1000 | > 1000 | 10 to 100
C=CC(=O)Nc1nc(N)c2ccn(-c3cncc(COc4ccc5ccc(NC)nc5c4)c3)c2n1 [Compound I-31] | > 1000 | – | > 1000 | > 1000
Nc1ncnc2c1c(Cl)cn2-c1cccc(COc2ccc3ccc(NCC4CC4)nc3c2)c1 [Compound I-67] | > 1000 | > 1000 | > 1000 | 100 to 1000
CNc1ccc2ccc(CNc3cccc(-n4cc(Br)c5c(N)ncnc54)c3)cc2n1 [Compound I-72, 7-{[(3-{4-amino-5-bromo-7H-pyrrolo[2,3-d]pyrimidin-7-yl}phenyl)amino]methyl}-N-methylquinolin-2-amine] | > 1000 | > 1000 | > 1000 | 100 to 1000
CNc1ccc2ccc(OCc3cccc(-n4cc(CC5CC5)c5c(N)ncnc54)c3)cc2n1 [Compound I-79] | > 1000 | > 1000 | > 1000 | 10 to 100
CNc1ccc2ccc(OCc3cccc(-n4cc(C5CCCC5)c5c(N)ncnc54)c3)cc2n1 [Compound I-86] | > 1000 | > 1000 | > 1000 | 10 to 100
CNc1ccc2ccc(OCc3cncc(-n4cc(CCN(C)C)c5c(N)ncnc54)c3)cc2n1 [Compound I-27] | > 1000 | – | > 1000 | 10 to 100

SMILES | IC50 [1] [nM] | IC50 [2] [nM] | IC50 [3] [nM] | IC50 [4] [nM]
Nc1ccc2ccc(OCc3cccc(-n4cc(Cl)c5c(N)ncnc54)c3)cc2n1 [Compound I-77] | > 1000 | > 1000 | > 1000 | > 1000
CNc1ccc2ccc(OCc3cncc(-n4ccc5c(C)ncnc54)c3)cc2n1 [Compound I-44] | > 1000 | – | > 1000 | 10 to 100
CNc1ccc2ccc(OCc3cncc(-n4cc(C5CCN(C)CC5)c5c(N)ncnc54)c3)cc2n1 [Compound I-33] | > 1000 | > 1000 | > 1000 | 100 to 1000
CNc1ccc2ccc(OCc3cccc(-c4c[nH]c5c(N)ncnc45)c3)cc2n1 [Compound I-71] | > 1000 | > 1000 | > 1000 | 10 to 100
CC(C)Nc1ccc2ccc(OCc3cncc(-n4cc(Cl)c5c(N)ncnc54)c3)cc2n1 [Compound I-39] | > 1000 | – | > 1000 | 10 to 100
CNc1ccc2ccc(OCc3cccc(-n4cc(Br)c5c(N)ncnc54)c3)cc2n1 [Compound I-43] | > 1000 | – | > 1000 | 10 to 100
CNc1ccc2ccc(OCc3cccc(-n4cc(CCN(C)C)c5c(N)ncnc54)c3)cc2n1 [Compound I-32] | > 1000 | > 1000 | > 1000 | 100 to 1000
CNc1ccc2ccc(OCc3cc(OC)cc(-n4cc(Cl)c5c(N)ncnc54)c3)cc2n1 [Compound I-82] | > 1000 | – | > 1000 | 100 to 1000
CNc1ccc2ccc(OCc3cncc(-n4cc(C5CCCC5)c5cncnc54)c3)cc2n1 [Compound I-57] | > 1000 | – | > 1000 | 100 to 1000
CNc1ccc2ccc(OCc3cccc(-n4ccc5c(N)ncnc54)c3F)cc2n1 [Compound I-226] | > 1000 | > 1000 | > 1000 | 10 to 100
CNc1ccc2ccc(OCc3cccc(-n4ccc5c(N)ncnc54)c3)cc2n1 [Compound I-78] | > 1000 | > 1000 | > 1000 | 10 to 100
CNc1ccc2ccc(OCc3cncc(-n4ccc5c(N)nc(N(C)C)nc54)c3)cc2n1 [Compound I-49] | > 1000 | – | > 1000 | > 1000
Cc1cc(N)c2ccc(OCc3cncc(-n4cc(Cl)c5c(N)ncnc54)c3)cc2n1 [Compound I-53] | > 1000 | – | > 1000 | 10 to 100
CNc1ccc2ccc(OCc3cncc(-n4ccc5c(N)nc(NC)nc54)c3)cc2n1 [Compound I-50] | > 1000 | – | > 1000 | > 1000
CNc1ccc2ccc(OCc3cc(-n4cc(Cl)c5c(N)ncnc54)ccc3OC)cc2n1 [Compound I-83] | > 1000 | – | > 1000 | > 1000
CNc1ccc2ccc(OCc3cncc(-n4ccc5c(N)nc(N)nc54)c3)cc2n1 [Compound I-56] | > 1000 | – | > 1000 | 100 to 1000
